Data: US12110293B2, “Substituted triazolo quinoxaline derivatives” (GRÜNENTHAL GMBH, priority 2018, dated 2024)

Target: T1, glucocorticoid receptor (Homo sapiens, UniProt P04150)
T1 construct: expressed in transfected cells
T1 sequence (P04150 524-758 limits assumed): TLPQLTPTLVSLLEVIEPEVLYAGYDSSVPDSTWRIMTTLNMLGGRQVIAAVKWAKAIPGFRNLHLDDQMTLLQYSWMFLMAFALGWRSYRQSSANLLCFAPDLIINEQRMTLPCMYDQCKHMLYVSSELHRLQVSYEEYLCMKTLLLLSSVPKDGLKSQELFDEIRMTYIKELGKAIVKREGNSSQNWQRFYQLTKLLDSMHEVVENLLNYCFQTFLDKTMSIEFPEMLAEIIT
Experiment: Agonistic mode of action on the glucocorticoid receptor (CHO-Gal4/GR luciferase reporter cell line)
Format: cell-based
Settings: range class observed in the agonistic assay or the antagonistic assay (CHO-Gal4/GR reporter cells); table does not say which mode applies per example
How it was run: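 CHO cells stably carrying GAL4 DBD–GR ligand-binding-domain fusion and GAL4-UAS firefly luciferase reporter, 5000 cells/well grown 24 h, then compounds added in Opti-MEM at 8 half-log concentrations from 10 μM to 0.003 μM (0.5% DMSO), quadruplicates. Agonist-induced luminescence read on FLIPR Tetra; EC50 calculated.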

Row | SMILES | IC50 or EC50 (agonist or antagonist mode not specified)
1 | Cc1nnc2n1-c1c(cc(F)c(-c3ccc(F)c4[nH]ccc34)c1C(F)F)NC2(C)C [Example 496, 9-(Difluoro-methyl)-7-fluoro-8-(7-fluoro-1H-indol-4-yl)-1,4,4-trimethyl-5H-[1,2,4]triazolo[4,3-a] quinoxaline] | < 100 nM
2 | CCS(=O)(=O)n1ncc2c(-c3c(F)cc4c(c3C(F)(F)F)-n3c(C)nnc3C(C)(C)N4)cc(F)cc21 [Example 448, 8-[1-(Ethylsulfonyl)-6-fluoro-1H-indazol-4-yl]-7-fluoro-1,4,4-trimethyl-9-(trifluoromethyl)-5H-[1,2,4]triazolo[4,3-a]quinoxaline] | 100 to 1000 nM
3 | CC#Cc1c[nH]c2c(-c3c(F)cc4c(c3C)-n3c(C(C)O)nnc3C(C)(C)N4)cc(F)cc12 (stereo not drawn) [Example 78] | 1000 to 15000 nM
4 | COCCn1ccc2c(-c3c(C(F)F)cc4c(c3F)-n3c(C)nnc3C(C)(C)N4)cc(F)cc21 [Example 396, 7-(Difluoro-methyl)-9-fluoro-8-[6-fluoro-1-(2-methoxy-ethyl)-1H-indol-4-yl]-1,4,4-trimethyl-5H-[1,2,4]triazolo[4,3-a]quinoxaline] | 1000 to 15000 nM
5 | Cc1nnc2n1-c1c(cc(C(F)F)c(-c3cc(F)cc4c3ccn4CCO)c1F)NC2(C)C [Example 385, 2-[4-[7-(Difluoro-methyl)-9-fluoro-1,4,4-trimethyl-5H-[1,2,4]triazolo [4,3-a]quinoxalin-8-yl]-6-fluoro-1H-indol-1-yl]-ethanol] | 1000 to 15000 nM
6 | Cc1nnc2n1-c1c(cc(F)c(-c3cccc4c3ccn4CCO)c1C(F)(F)F)NC2(C)C [Example 456, 2-[4-[7-Fluoro-1,4,4-trimethyl-9-(trifluoromethyl)-5H-[1,2,4]triazolo[4,3-a]quinoxalin-8-yl]-1H-indol-1-yl]-ethanol] | 100 to 1000 nM
7 | Cc1nnc2n1-c1c(cc(F)c(-c3cc(F)cc4c3cnn4S(C)(=O)=O)c1C(F)F)NC2(C)C [Example 346, 9-(Difluoro-methyl)-7-fluoro-8-(6-fluoro-1-methylsulfonyl-1H-indazol-4-yl)-1,4,4-trimethyl-5H-[1,2,4]triazolo[4,3-a]quinoxaline] | 100 to 1000 nM
8 | COc1c(-c2cc(F)cc3c2ccn3S(C)(=O)=O)c(F)cc2c1-n1c(C)nnc1C(C)(C)N2 [Example 250, 7-Fluoro-8-(6-fluoro-1-methylsulfonyl-1H-indol-4-yl)-9-methoxy-1,4,4-trimethyl-5H-[1,2,4]triazolo[4,3-a]quinoxaline] | < 100 nM
9 | Cc1nnc2n1-c1c(cc(F)c(-c3cc(F)cc4c3ccn4C3CC3)c1F)NC2(C)C [Example 2, 8-(1-cyclopropyl-6-fluoro-1H-indol-4-yl)-7,9-difluoro-1,4,4-trimethyl-4,5-dihydro-[1,2,4]triazolo[4,3-a]quinoxaline] | < 100 nM
10 | Cc1nnc2n1-c1c(cc(F)c(-c3cc(F)cc4[nH]ccc34)c1F)NC2(C)C [Example 1, 7,9-difluoro-8-(6-fluoro-1H-indol-4-yl)-1,4,4-trimethyl-4,5-dihydro-[1,2,4]triazolo[4,3-a]quinoxaline] | < 100 nM
11 | CC#Cc1c[nH]c2c(-c3c(F)cc4c(c3C)-n3c(COC)nnc3C(C)(C)N4)cc(F)cc12 [Example 76, 7-fluoro-8-(5-fluoro-3-(prop-1-yn-1-yl)-1H-indol-7-yl)-1-(methoxymethyl)-4,4,9-trimethyl-4,5-dihydro-[1,2,4]triazolo[4,3-a]quinoxaline] | < 100 nM
12 | Cc1nnc2n1-c1c(cc(OC(F)F)c(-c3cccc4c3cnn4C)c1F)NC2(C)C [Example 273, 7-(Difluoro-methoxy)-9-fluoro-1,4,4-trimethyl-8-(1-methyl-1H-indazol-4-yl)-5H-[1,2,4]triazolo[4,3-a]quinoxaline] | 1000 to 15000 nM
